Laboratory results: US6127382A, “Amines substituted with a tetrahydroquinolinyl group an aryl or heteroaryl group and an alkyl group, having retinoid-like biological activity” (Allergan Sales, Inc., priority 1999, dated 2000)

Key:
RARα = biological target: T1, RARα (Homo sapiens, UniProt P10276); assay: ligand binding assay, RARα; details: read-out: RAR Bind Ki α
T1 sequence (P10276 1-462): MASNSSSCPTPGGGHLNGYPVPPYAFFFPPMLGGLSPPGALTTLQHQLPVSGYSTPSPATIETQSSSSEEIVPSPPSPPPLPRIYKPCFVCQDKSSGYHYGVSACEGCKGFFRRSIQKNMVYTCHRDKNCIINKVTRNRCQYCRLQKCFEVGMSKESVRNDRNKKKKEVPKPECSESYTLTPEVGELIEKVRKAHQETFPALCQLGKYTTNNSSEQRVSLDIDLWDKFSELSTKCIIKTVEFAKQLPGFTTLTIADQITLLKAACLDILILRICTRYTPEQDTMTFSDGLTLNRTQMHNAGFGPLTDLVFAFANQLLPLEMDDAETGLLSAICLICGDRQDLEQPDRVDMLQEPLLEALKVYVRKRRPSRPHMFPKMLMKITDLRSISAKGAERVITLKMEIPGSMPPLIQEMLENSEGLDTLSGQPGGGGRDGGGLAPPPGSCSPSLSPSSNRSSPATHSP
Text: (§1) Other assays described below, measure the ability of the compounds of the present invention to bind to, and/or activate various retinoid receptor subtypes. When in these assays a compound binds to a given receptor subtype and activates the transcription of a reporter gene through that subtype, then the compound is considered an agonist of that receptor subtype. […] In the below described assays the ability of the compounds to bind to RARα, RARβ, RARγ, RXRα, RXRβ and RXRγ receptors, and the ability or inability of the compounds to activate transcription of a reporter gene through these receptor subtypes can be tested. […] However, some of the compounds of the invention may behave as retinoid antagonists or partial antagonists and/or as inverse agonists. Because of the complex distribution of the different retinoid receptors in various organs of the mammalian body partial agonists and partial antagonists and compounds which have the characteristics of both may lend themselves to particularly useful therapeutic applications and may avoid serious side effects of conventional retinoid drugs.
(§2) A holoreceptor transactivation assay and a ligand binding assay which measure the antagonist/agonist like activity of the compounds of the invention, or their ability to bind to the several retinoid receptor subtypes, respectively, are described in published PCT Application No. WO WO93/11755 (particularly on pages 30-33 and 37-41) published on Jun. 24, 1993, the specification of which is also incorporated herein by reference. A detailed experimental procedure for holoreceptor transactivations has been described by Heyman et al. Cell 68, 397-406, (1992); Allegretto et al. J. Biol. Chem. 268, 26625-26633, and Mangelsdorf et al. The Retinoids: Biology, Chemistry and Medicine, pp 319-349, Raven Press Ltd., New York, which are expressly incorporated herein by reference. The results obtained in this assay are expressed in EC50 numbers, as they are also in the chimeric receptor transactivation assay. The results of ligand binding assay are expressed in Kd numbers. (See Cheng et al. Biochemical Pharmacology Vol. 22 pp 3099-3108, expressly incorporated herein by reference.)
(§3) Table 1 discloses the activity of certain exemplary compounds of the invention in the above-described chimeric receptor transactivation assay, holoreceptor transactivation assay and a ligand binding assays. Particularly, the transactivation data pertaining to RAR receptors were obtained in the chimeric assay, and the data pertaining to transactivation of RXR receptors were obtained in the holoreceptor transactivation assay.

RXRγ = biological target: T2, RXRγ (Mus musculus, UniProt P28705); assay: holoreceptor transactivation assay, RXRγ; type: cell-based
T2 construct: expressed in transfected cells
T2 sequence (P28705 1-463): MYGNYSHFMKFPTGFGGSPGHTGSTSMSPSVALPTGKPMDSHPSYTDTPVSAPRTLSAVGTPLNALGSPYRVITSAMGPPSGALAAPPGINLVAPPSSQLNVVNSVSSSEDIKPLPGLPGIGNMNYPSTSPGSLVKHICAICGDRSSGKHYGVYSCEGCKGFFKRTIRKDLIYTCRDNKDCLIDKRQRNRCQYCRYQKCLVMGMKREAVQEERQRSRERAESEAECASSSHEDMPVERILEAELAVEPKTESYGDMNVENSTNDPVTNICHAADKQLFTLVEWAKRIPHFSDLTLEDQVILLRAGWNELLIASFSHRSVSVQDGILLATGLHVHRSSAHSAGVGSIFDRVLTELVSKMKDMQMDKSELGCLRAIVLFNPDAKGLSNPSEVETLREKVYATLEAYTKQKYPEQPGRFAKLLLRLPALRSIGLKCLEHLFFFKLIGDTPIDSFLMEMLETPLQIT
Text: as §1, §2, §3

RXRα [1] = biological target: T3, RXRα (Homo sapiens, UniProt P19793); assay: ligand binding assay, RXRα; details: read-out: RXR Bind Ki α
T3 construct: expressed in transfected cells
T3 sequence (P19793 1-462): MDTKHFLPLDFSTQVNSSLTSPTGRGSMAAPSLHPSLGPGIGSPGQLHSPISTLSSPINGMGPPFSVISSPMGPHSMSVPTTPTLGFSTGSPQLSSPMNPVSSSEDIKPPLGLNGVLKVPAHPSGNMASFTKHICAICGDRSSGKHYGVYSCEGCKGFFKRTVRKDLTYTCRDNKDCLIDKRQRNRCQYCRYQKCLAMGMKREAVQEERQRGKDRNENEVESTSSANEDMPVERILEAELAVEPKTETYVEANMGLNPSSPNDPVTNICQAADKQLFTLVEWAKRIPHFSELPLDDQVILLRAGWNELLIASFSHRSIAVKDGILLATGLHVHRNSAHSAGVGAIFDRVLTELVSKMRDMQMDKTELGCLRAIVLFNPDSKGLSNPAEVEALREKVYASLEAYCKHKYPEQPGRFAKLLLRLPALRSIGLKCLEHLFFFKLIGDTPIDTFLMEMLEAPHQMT
Text: as §1, §2, §3

RXRα [2] = biological target: T3, RXRα; assay: holoreceptor transactivation assay, RXRα; type: cell-based
Text: as §1, §2, §3

RARγ = biological target: T4, RARγ (Homo sapiens, UniProt P13631); assay: ligand binding assay, RARγ; details: read-out: RAR Bind Ki γ
T4 sequence (P13631 1-454): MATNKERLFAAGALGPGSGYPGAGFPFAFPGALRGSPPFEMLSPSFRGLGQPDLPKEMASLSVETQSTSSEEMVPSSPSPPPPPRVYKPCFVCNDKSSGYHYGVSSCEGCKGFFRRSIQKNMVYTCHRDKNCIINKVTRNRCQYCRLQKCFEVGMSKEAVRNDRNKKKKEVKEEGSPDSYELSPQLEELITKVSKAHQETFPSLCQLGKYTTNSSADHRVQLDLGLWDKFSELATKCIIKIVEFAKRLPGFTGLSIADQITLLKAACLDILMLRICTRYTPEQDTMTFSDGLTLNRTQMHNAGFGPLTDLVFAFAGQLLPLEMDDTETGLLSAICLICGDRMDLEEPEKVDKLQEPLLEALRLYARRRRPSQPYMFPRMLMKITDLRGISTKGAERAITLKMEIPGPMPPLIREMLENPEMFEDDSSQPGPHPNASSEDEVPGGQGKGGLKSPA
Text: as §1, §2, §3

- Ki (RARα): > 10000 nM
- EC50 (RXRγ; holoreceptor assay, read-out: RXR Trans EC50 γ): 4 nM
- Emax (RXRγ; relative to 10^-6 M cyclopropyl penta-2,4-dienoic acid reference, read-out: % efficacy, RXRγ transactivation): 102%
- Ki (RXRα [1]): 327 nM
- EC50 (RXRα [2]; holoreceptor assay, read-out: RXR Trans EC50 α): 4 nM
- Emax (RXRα [2]; relative to 10^-6 M cyclopropyl penta-2,4-dienoic acid reference, read-out: % efficacy, RXRα transactivation): 103%
- Ki (RARγ): > 10000 nM
Compound: Cc1cc2c(cc1Nc1ccc(C(=O)O)cc1)N(C(C)C)CCC2(C)C [Compound 50, 4-(1-Isopropyl-4,4,6-trimethyl-1,2,3,4-tetrahydro-quinolin-7-ylamino)-benzoic acid]
